Molecular target: DGKα (Homo sapiens (Human), UniProt P23743)
Assay: Human DGKα kinase activity inhibition assay (ADP-Glo)
Type: biochemical
Conditions: recombinant full-length human DGKα, 55 μM ATP, 7 μM 1,2-dioleoyl-sn-glycerol, read-out: IC50 values of examples in in vitro human DGKa kinase activity inhibition assays
Outline: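 Activity was measured as ADP production, detected by luciferase luminescence after removal of unused ATP. The enzyme was baculovirus-expressed full-length human DGKα with a C-terminal FLAG tag. The substrate was 1,2-dioleoyl-sn-glycerol in detergent micelles, and compounds came from 100× DMSO solutions.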

DGKα, sequence (P23743 other isoform, or with tags, fused parts or gaps): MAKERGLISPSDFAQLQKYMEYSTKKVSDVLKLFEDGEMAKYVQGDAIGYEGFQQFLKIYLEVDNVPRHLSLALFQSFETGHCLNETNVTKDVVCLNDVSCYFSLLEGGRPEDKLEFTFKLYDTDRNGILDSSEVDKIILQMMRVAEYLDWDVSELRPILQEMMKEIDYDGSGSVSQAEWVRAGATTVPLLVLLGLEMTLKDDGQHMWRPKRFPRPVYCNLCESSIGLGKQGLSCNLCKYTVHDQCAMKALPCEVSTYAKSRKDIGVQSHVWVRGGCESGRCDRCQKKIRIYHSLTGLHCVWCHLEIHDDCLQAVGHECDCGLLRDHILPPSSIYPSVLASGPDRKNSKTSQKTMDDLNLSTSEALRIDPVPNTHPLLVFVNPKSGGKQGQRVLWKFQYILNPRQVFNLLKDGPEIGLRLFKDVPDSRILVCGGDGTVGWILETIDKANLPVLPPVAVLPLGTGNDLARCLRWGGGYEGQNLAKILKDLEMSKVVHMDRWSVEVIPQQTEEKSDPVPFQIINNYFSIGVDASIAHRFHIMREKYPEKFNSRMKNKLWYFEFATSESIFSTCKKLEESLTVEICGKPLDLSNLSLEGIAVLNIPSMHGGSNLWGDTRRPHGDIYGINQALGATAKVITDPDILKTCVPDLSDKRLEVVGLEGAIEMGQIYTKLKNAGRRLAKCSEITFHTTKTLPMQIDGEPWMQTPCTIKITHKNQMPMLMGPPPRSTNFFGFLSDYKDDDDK

First: CCOc1ccc2c(c1)c(N1CCC(c3nc4cc(C)ccc4o3)CC1)c(C#N)c(=O)n2C [Example 405, 6-ethoxy-1-methyl-4-[4-(5-methyl-1,3-benzoxazol-2-yl)piperidin-1-yl]-2-oxo-1,2-dihydroquinoline-3-carbonitrile]
Second: Cc1ccc2oc(C3CCN(c4c(C#N)c(=O)n(C)c5cc(O)c(Br)cc45)CC3)nc2c1 [Example 422, 6-bromo-7-hydroxy-1-methyl-4-[4-(5-methyl-1,3-benzoxazol-2-yl)piperidin-1-yl]-2-oxo-1,2-dihydroquinoline-3-carbonitrile]
The IC50 of the first is 59-fold higher: 41 nM for the first, 0.7 nM for the second.

Going from `Cn1c(=O)c(C#N)c(N2CCC(c3ccc(OC(F)(F)F)cc3)CC2)c2ccccc21` [Example 43, 1-methyl-2-oxo-4-{4-[4-(trifluoromethoxy)phenyl]piperidin-1-yl}-1,2-dihydroquinoline-3-carbonitrile] to `Cn1c(=O)c(C#N)c(N2CCC(c3ccccc3)CC2)c2ccccc21` [Example 57, 1-methyl-2-oxo-4-(4-phenylpiperidin-1-yl)-1,2-dihydroquinoline-3-carbonitrile], the IC50 rises from 11 nM to 22 nM (2-fold). The first is the more potent here.

Going from `COCCc1ccc2nc(C3CCN(c4c(C#N)c(=O)n(C)c5ccccc45)CC3)oc2c1` [Example 284, 4-{4-[6-(2-methoxyethyl)-1,3-benzoxazol-2-yl]piperidin-1-yl}-1-methyl-2-oxo-1,2-dihydroquinoline-3-carbonitrile] to `COCCc1cccc2oc(C3CCN(c4c(C#N)c(=O)n(C)c5ccccc45)CC3)nc12` [Example 265, 4-{4-[4-(2-methoxyethyl)-1,3-benzoxazol-2-yl]piperidin-1-yl}-1-methyl-2-oxo-1,2-dihydroquinoline-3-carbonitrile], the IC50 rises from 9.3 nM to 49 nM (5.3-fold).

Going from `Cc1ccc2c(c1)c(N1CCC(C)(c3nc4cc(C(C)C)ccc4o3)CC1)c(C#N)c(=O)n2C` [Example 189, 1,6-dimethyl-4-{4-methyl-4-[5-(propan-2-yl)-1,3-benzoxazol-2-yl]piperidin-1-yl}-2-oxo-1,2-dihydroquinoline-3-carbonitrile] to `Cc1ccc2oc(C3(C)CCN(c4c(C#N)c(=O)n(C)c5cc(Cl)ccc45)CC3)nc2c1` [Example 228, 7-chloro-1-methyl-4-[4-methyl-4-(5-methyl-1,3-benzoxazol-2-yl)piperidin-1-yl]-2-oxo-1,2-dihydroquinoline-3-carbonitrile], the IC50 falls from 15 nM to 2.4 nM (6.2-fold).

`Cc1ccc2oc(C3CCN(c4c(C(N)=O)c(=O)n(C)c5cc(OCC(N)=O)ccc45)CC3)nc2c1` [Example 508, 7-(2-amino-2-oxoethoxy)-1-methyl-4-[4-(5-methyl-1,3-benzoxazol-2-yl)piperidin-1-yl]-2-oxo-1,2-dihydroquinoline-3-carboxamide] and `Cc1ccc2oc(C3CCN(c4c(C(N)=O)c(=O)n(C)c5cc(Cl)ccc45)CC3)nc2c1` [Example 301, 7-chloro-1-methyl-4-[4-(5-methyl-1,3-benzoxazol-2-yl)piperidin-1-yl]-2-oxo-1,2-dihydroquinoline-3-carboxamide] are the same in IC50: 1.4 nM for the first, 1.4 nM for the second.

Going from `COc1ccc2c(N3CCC(c4ccccc4)CC3)c(C#N)c(=O)n(C)c2c1` [Example 256, 7-methoxy-1-methyl-2-oxo-4-(4-phenylpiperidin-1-yl)-1,2-dihydroquinoline-3-carbonitrile] to `COc1ccc(C2CCN(c3c(C#N)c(=O)n(C)c4ccccc34)CC2)cn1` [Example 142, 4-[4-(6-methoxypyridin-3-yl)piperidin-1-yl]-1-methyl-2-oxo-1,2-dihydroquinoline-3-carbonitrile], the IC50 rises from 25 nM to 58 nM (2.3-fold).

First: Cc1ccc2oc(C3CCN(c4c(C#N)c(=O)n(C)c5ccc(C6(C(F)(F)F)CC6)cc45)CC3)nc2c1 [Example 412, 1-methyl-4-[4-(5-methyl-1,3-benzoxazol-2-yl)piperidin-1-yl]-2-oxo-6-[1-(trifluoromethyl)cyclopropyl]-1,2-dihydroquinoline-3-carbonitrile]
Second: Cc1ccc2oc(C3CCN(c4c(C#N)c(=O)n(C)c5c(Br)cccc45)CC3)nc2c1 [Example 397, 8-bromo-1-methyl-4-[4-(5-methyl-1,3-benzoxazol-2-yl)piperidin-1-yl]-2-oxo-1,2-dihydroquinoline-3-carbonitrile]
The IC50 of the first is 19-fold lower: 21 nM for the first, 399 nM for the second.

Going from `Cc1ccc2oc(C3CCN(c4c(C#N)c(=O)n(C)c5cc(N(C)CCO)c(C)cc45)CC3)nc2c1` [Example 551, 7-[(2-hydroxyethyl)(methyl)amino]-1,6-dimethyl-4-[4-(5-methyl-1,3-benzoxazol-2-yl)piperidin-1-yl]-2-oxo-1,2-dihydroquinoline-3-carbonitrile] to `COc1ccc2c(N3CCC(c4nc5ccc(Cl)cc5o4)CC3)c(C#N)c(=O)n(C)c2c1` [Example 258, 4-[4-(6-chloro-1,3-benzoxazol-2-yl)piperidin-1-yl]-7-methoxy-1-methyl-2-oxo-1,2-dihydroquinoline-3-carbonitrile], the IC50 rises from 0.1 nM to 29 nM (290-fold). The first is the more potent here.

`Cc1cc2c(N3CCC(c4cnn(-c5ccccc5C)c4)CC3)c(C#N)c(=O)n(C)c2cc1Br` [Example 579, 7-bromo-1,6-dimethyl-4-{4-[1-(2-methylphenyl)-1H-pyrazol-4-yl]piperidin-1-yl}-2-oxo-1,2-dihydroquinoline-3-carbonitrile] and `Cc1ccccc1-c1nnc(C2CCN(c3c(C#N)c(=O)n(C)c4cc(O)c(Br)cc34)CC2)o1` [Example 445, 6-bromo-7-hydroxy-1-methyl-4-{4-[5-(2-methylphenyl)-1,3,4-oxadiazol-2-yl]piperidin-1-yl}-2-oxo-1,2-dihydroquinoline-3-carbonitrile] are within 1.5-fold of each other in IC50: 61 nM for the first, 44 nM for the second.

Compared with `CNC(=O)c1c(N2CCC(c3nc4ccccc4o3)CC2)c2ccccc2n(C)c1=O` [Example 447, 4-[4-(1,3-benzoxazol-2-yl)piperidin-1-yl]-N,1-dimethyl-2-oxo-1,2-dihydroquinoline-3-carboxamide], `Cc1ccc2c(c1)c(N1CCC(c3nc4ccccc4o3)CC1)c(C(N)=O)c(=O)n2C` [Example 193, 4-[4-(1,3-benzoxazol-2-yl)piperidin-1-yl]-1,6-dimethyl-2-oxo-1,2-dihydroquinoline-3-carboxamide] is 26-fold lower in IC50: 63 nM for the first, 2.4 nM for the second. The second is the more potent here.

First: Cn1c(=O)c(C#N)c(N2CCC(c3nc4cc(N5CCCC5=O)ccc4o3)CC2)c2ccccc21 [Example 334, 1-methyl-2-oxo-4-{4-[5-(2-oxopyrrolidin-1-yl)-1,3-benzoxazol-2-yl]piperidin-1-yl}-1,2-dihydroquinoline-3-carbonitrile]
Second: Cn1c(=O)c(C#N)c(N2CCC(c3nc4ccc(Cl)cc4o3)CC2)c2ccccc21 [Example 9, 4-[4-(6-chloro-1,3-benzoxazol-2-yl)piperidin-1-yl]-1-methyl-2-oxo-1,2-dihydroquinoline-3-carbonitrile]
The IC50 of the first is 30-fold higher: 100 nM for the first, 3.3 nM for the second. The second is the more potent here.

Going from `Cn1c(=O)c(C#N)c(N2CCC(c3nc4cc(Cl)ccc4o3)CC2)c2cccc(Br)c21` [Example 159, 8-bromo-4-[4-(5-chloro-1,3-benzoxazol-2-yl)piperidin-1-yl]-1-methyl-2-oxo-1,2-dihydroquinoline-3-carbonitrile] to `Cn1c(=O)c(C#N)c(N2CCC(c3nc4ccccc4o3)CC2)c2cc(Br)ccc21` [Example 168, 4-[4-(1,3-benzoxazol-2-yl)piperidin-1-yl]-6-bromo-1-methyl-2-oxo-1,2-dihydroquinoline-3-carbonitrile], the IC50 falls from 383 nM to 0.5 nM (770-fold).

First: Cn1c(=O)c(C#N)c(N2CCC(c3nc4ccccc4o3)CC2)c2ccc(C#N)cc21 [Example 275, 4-[4-(1,3-benzoxazol-2-yl)piperidin-1-yl]-1-methyl-2-oxo-1,2-dihydroquinoline-3,7-dicarbonitrile]
Second: Cn1c(=O)c(C#N)c(N2CCC(c3nnc(-c4ccccc4)o3)CC2)c2cc(Br)ccc21 [Example 441, 6-bromo-1-methyl-2-oxo-4-[4-(5-phenyl-1,3,4-oxadiazol-2-yl)piperidin-1-yl]-1,2-dihydroquinoline-3-carbonitrile]
The IC50 of the first is 16-fold higher: 172 nM for the first, 11 nM for the second.

Compared with `COc1ccc(C2CCN(c3c(C#N)c(=O)n(C)c4ccccc34)CC2)cc1OC` [Example 324, 4-[4-(3,4-dimethoxyphenyl)piperidin-1-yl]-1-methyl-2-oxo-1,2-dihydroquinoline-3-carbonitrile], `Cn1c(=O)c(C#N)c(N2CCC(c3ccc4ccncc4c3)CC2)c2ccccc21` [Example 74] is 3.4-fold higher in IC50: 14 nM for the first, 48 nM for the second. The first is the more potent here.

Compared with `Cn1c(=O)c(C#N)c(N2CCC(c3ccc(OCc4ccccc4)cc3)CC2)c2ccccc21` [Example 48, 4-{4-[4-(benzyloxy)phenyl]piperidin-1-yl}-1-methyl-2-oxo-1,2-dihydroquinoline-3-carbonitrile], `Cn1ccc2c(F)cc(C3CCN(c4c(C#N)c(=O)n(C)c5ccccc45)CC3)cc21` [Example 365, 4-[4-(4-fluoro-1-methyl-1H-indol-6-yl)piperidin-1-yl]-1-methyl-2-oxo-1,2-dihydroquinoline-3-carbonitrile] is 4.7-fold higher in IC50: 3 nM for the first, 14 nM for the second.

Going from `Cn1c(=O)c(C(N)=O)c(N2CCC(C)(c3nc4ccccc4o3)CC2)c2ccccc21` [Example 105, 4-[4-(1,3-benzoxazol-2-yl)-4-methylpiperidin-1-yl]-1-methyl-2-oxo-1,2-dihydroquinoline-3-carboxamide] to `Cn1c(=O)c(C#N)c(N2CCC(F)(c3nc4ccccc4o3)CC2)c2ccccc21` [Example 389, 4-[4-(1,3-benzoxazol-2-yl)-4-fluoropiperidin-1-yl]-1-methyl-2-oxo-1,2-dihydroquinoline-3-carbonitrile], the IC50 rises from 1.9 nM to 3.1 nM (1.6-fold).

Going from `Cn1c(=O)c(C(N)=O)c(N2CCC(c3ccc4c(c3)CC(O)C4)CC2)c2ccccc21` (stereo not shown) [Example 467, 4-[4-(2-hydroxy-2,3-dihydro-1H-inden-5-yl)piperidin-1-yl]-1-methyl-2-oxo-1,2-dihydroquinoline-3-carboxamide] to `CC(=O)c1ccc(C2(C)CCN(c3c(C#N)c(=O)n(C)c4ccccc34)CC2)cc1` [Example 335, 4-[4-(4-acetylphenyl)-4-methylpiperidin-1-yl]-1-methyl-2-oxo-1,2-dihydroquinoline-3-carbonitrile], the IC50 falls from 3.9 nM to 2.3 nM (1.7-fold). The second is the more potent here.
